This assay concerns the target T1, GST-Aurora A (Homo sapiens, UniProt O14965).
T1 construct: N-terminal GST fusion with full length Aurora A (1-403 amino acids); purchased Carna Biosciences 05-101
T1 sequence (O14965 1-403): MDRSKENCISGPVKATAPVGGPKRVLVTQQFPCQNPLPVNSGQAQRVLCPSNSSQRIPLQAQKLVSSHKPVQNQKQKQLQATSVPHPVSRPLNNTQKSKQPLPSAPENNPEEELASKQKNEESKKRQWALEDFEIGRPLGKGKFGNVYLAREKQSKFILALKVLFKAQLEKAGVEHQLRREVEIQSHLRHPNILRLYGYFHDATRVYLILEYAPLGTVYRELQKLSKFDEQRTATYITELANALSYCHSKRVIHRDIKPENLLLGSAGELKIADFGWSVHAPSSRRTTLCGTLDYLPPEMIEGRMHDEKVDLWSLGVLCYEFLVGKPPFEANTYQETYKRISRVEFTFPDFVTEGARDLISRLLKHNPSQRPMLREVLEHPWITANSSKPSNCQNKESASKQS
The experiment in a line: Aurora A kinase biochemical mobility shift assay (Caliper LC3000 / Desktop Profiler). Particulars: AK A (Aurora kinase A) inhibition. The method, then:
The Aurora assays described here are performed on two Caliper Life Sciences systems: the LC3000 and the Desktop Profiler. The RON kinase assays are performed on the Desktop Profiler only. These provide data on enzyme activity via measurement of the relative amounts of phosphorylated or unphosphorylated fluorescently labelled substrate peptide at the end of an enzymatic reaction. These different states of peptide are resolved by applying a potential difference across the sample. The presence of the charged phosphate group on the product (as opposed to the substrate) causes a different peptide mobility between the two peptides. This is visualized by excitation of the fluorescent label on the substrate and product peptides and represented as peaks within the analysis software.
In order to measure inhibitor activity of Aurora A inhibitors in the Caliper Life Sciences LC3000, a TTP Mosquito liquid handling instrument is used to place 0.25 ul of the appropriate concentration of inhibitor in 100% DMSO (for a dose response curve calculation) into each well of a 384-well plate. To this reaction components are added to a final volume of 25 ul: • 0.067 ng/ul GST-Aurora A (Carna Biosciences 05-101. N-terminal GST fusion with full length Aurora A (1-403 amino acids), accession number NP_940835.1). • 15 uM ATP (Fluka, 02055) • 1 mM DTT (Sigma, D0632) • 1 mM MgCl2 (Sigma, M1028) • 1 uM substrate peptide (sequence FITC-LRRASLG-(CONH2), synthesized by Tufts Peptide Synthesis service. • 100 mM HEPES pH 7.5 (Calbiochem, 391338) • 0.015% Brij-35 (Sigma, B4184)
The reaction is incubated for 90 min at 25 C, and then stopped by the addition of 70 ul of Stop buffer (100 mM HEPES pH 7.5, 0.015% Brij-35, 10 mM EDTA (Sigma, E7889)).
The plate is read on a Caliper LC3000 in an Off-Chip mobility shift assay format, using the following parameters for a 12-sipper chip: screening pressure −1.8 psi, upstream voltage −2700, downstream voltage −1000. These conditions cause unphosphorylated substrate and phosphorylated product peptide to resolve as separate peaks allowing direct measurement of percentage of conversion of substrate to product. The percent conversion can be plotted against concentration of inhibitor to produce a sigmoidal dose response curve, from which an IC50 can be calculated using XLFit for Microsoft Excel.
The Desktop Profiler utilizes the same priniciple as the LC3000 for calculating percentage conversion of a substrate to product. Caliper Life Sciences provides proprietary flash frozen pre-made 384 well plates containing selected kinases. Each column in the 384 well plate contains a particular selected kinase. A second plate, the ‘substrate plate’ contains a mix of fluorescently labeled peptide substrate and ATP. These are arranged in columns so that transfer for substrate plate to enzyme plate provides the correct enzyme with the correct substrate/ATP concentration. Compounds are added to a thawed enzyme plate in the desired format, in single concentrations. Reactions are initiated by transfer of the substrate/ATP mix from the substrate plate. The enzyme plate is incubated for 90 minutes at 25 C. The reaction is stopped by addition of 70 ul of Stop Buffer (100 mM HEPES pH 7.5, 0.015% Brij-35, 10 mM EDTA (Sigma, E7889)).
Reading of the plate in the Profiler is identical to the LC3000, and the ratio between substrate and product peaks provides the activity of the enzyme in that well. This is best represented by a plate heat map which colors each well by percent inhibition as compared to positive and negative controls (no inhibitors and no ATP respectively).
Regarding `COc1ccc(CN2Cc3c(Nc4ccc(NC(=O)c5ccccc5)cc4)ccnc3NC2=O)cc1` [Example 2], the IC50 was 100 to 1000 nM.
For `O=C1NCc2c(Nc3ccc(NC(=O)c4ccccc4)cc3)ccnc2N1` [Example 4, N-(4-(2-oxo-1,2,3,4-tetrahydropyrido [2,3-d]pyrimidin-5-ylamino)phenyl)benzamide], the IC50 was 10 to 100 nM.
For the compound `COc1ccc(CN2Cc3c(Nc4ccc(NC(=O)c5ccc(F)cc5C(F)(F)F)cc4)ccnc3NC2=O)cc1` [Example 5, 4-fluoro-N-(4-(3-(4-methoxybenzyl)-2-oxo-1,2,3,4-tetrahydropyrido [2,3-d]pyrimidin-5-ylamino)phenyl)-2-(trifluoromethyl) benzamide], the IC50 is 100 to 1000 nM.
With `O=C1NCc2c(Nc3ccc(NC(=O)c4ccc(F)cc4C(F)(F)F)cc3)ccnc2N1` [Example 6, 4-fluoro-N-(4-(2-oxo-1,2,3,4-tetrahydropyrido[2,3-d]pyrimidin-5-ylamino)phenyl)-2-(trifluoromethyl) benzamide] the figure was less than 10 nM; with `O=C(Nc1ccc(Nc2ccnc3c2CN(c2ccc(CN4CCCC4)cc2)C(=O)N3)cc1)c1ccc(F)cc1C(F)(F)F` [Example 8, 4-fluoro-N-(4-(2-oxo-3-(4-(pyrrolidin-1-ylmethyl)phenyI)-1,2,3,4-tetrahydropyrido[2,3-d]pyrimidin-5-ylamino)phenyl)-2-(trifluoromethyl)benzamide], 100 to 1000 nM.
Next, `O=C(Nc1ccc(Nc2ccnc3c2CN(c2ccc(CN4CCCC4)cc2)C(=O)N3)cc1)c1ccccc1` [Example 9, N-(4-(2-oxo-3-(4-(pyrrolidin-1-ylmethyl)phenyl)-1,2,3,4-tetrahydropyrido[2,3-d]pyrimidin-5-ylamino)phenyl)benzamide]: 100 to 1000 nM; `CN(C)CCN1Cc2c(Nc3ccc(NC(=O)c4ccc(F)cc4C(F)(F)F)cc3)ccnc2NC1=O` [Example 11, N-(4-(3-(2-(dimethylamino)ethyl)-2-oxo-1,2,3,4-tetrahydropyrido [2,3-d]pyrimidin-5-ylamino)phenyl)-4-fluoro-2-(trifluoromethyl) benzamide]: 100 to 1000 nM.
Consider `O=C(Nc1ccc(Nc2ccnc3c2CN(C2CC2)C(=O)N3)cc1)c1ccccc1` [Example 14, N-(4-(3-cyclopropyl-2-oxo-1,2,3,4-tetrahydropyrido[2,3-d]pyrimidin-5-ylamino)phenyl) benzamide], for which the IC50 was in the range of 100 to 1000 nM.
Next, `O=C(Nc1ccc(Nc2ccnc3c2CN(C2CC2)C(=O)N3)cc1)c1ccc(F)cc1C(F)(F)F` [Example 15, N-(4-(3-cyclopropyl-2-oxo-1,2,3,4-tetrahydropyrido [2,3-d]pyrimidin-5-ylamino)phenyl)-4-fluoro-2-(trifluoromethyl) benzamide]: 10 to 100 nM; `CN1Cc2c(Nc3ccc(NC(=O)c4cccc(F)c4)cc3F)ccnc2NC1=O` [Example 20, 3-fluoro-N-(3-fluoro-4-(3-methyl-2-oxo-1,2,3,4-tetrahydropyrido [2,3-d]pyrimidin-5-ylamino)phenyl) benzamide]: less than 10 nM; `CN1Cc2c(Nc3ccc(NC(=O)c4ccc(F)cc4C(F)(F)F)cc3)ccnc2NC1=O` [Example 21, 4-fluoro-N-(4-(3-methyl-2-oxo-1,2,3,4-tetrahydropyrido [2,3-d]pyrimidin-5-ylamino)phenyl)-2-(trifluoromethyl) benzamide]: less than 10 nM.
Turning to `CN1Cc2c(Nc3ccc(NC(=O)c4ccccc4)cc3)ccnc2NC1=O` [Example 22, N-(4-(3-methyl-2-oxo-1,2,3,4-tetrahydropyrido [2,3-d]pyrimidin-5-ylamino)phenyl) benzamide], the concentration for half-maximal inhibition (IC50) was in the range of 10 to 100 nM.
With `CN1Cc2c(Nc3ccc(NC(=O)CC4CC4)cc3)ccnc2NC1=O` [Example 23, 2-cyclopropyl-N-(4-(3-methyl-2-oxo-1,2,3,4-tetrahydropyrido [2,3-d]pyrimidin-5-ylamino)phenyl) acetamide], the IC50 is 100 to 1000 nM.
Turning to `CN1Cc2c(Nc3ccc(NC(=O)CC(F)(F)F)cc3)ccnc2NC1=O` [Example 24, 3,3,3-trifluoro-N-(4-(3-methyl-2-oxo-1,2,3,4-tetrahydropyrido [2,3-d]pyrimidin-5-ylamino)phenyl) propanamide], the IC50 is 100 to 1000 nM.
With `O=C(Nc1ccc(Nc2ccnc3c2CN(c2ccccc2)C(=O)N3)c(F)c1)c1cccc(F)c1` [Example 26, 3-fluoro-N-(3-fluoro-4-(2-oxo-3-phenyl-1,2,3,4-tetrahydropyrido [2,3-d]pyrimidin-5-ylamino)phenyl) benzamide] the figure was 10 to 100 nM.
Next, `O=C(Nc1ccc(Nc2ccnc3c2CN(c2ccccc2)C(=O)N3)cc1)c1ccc(F)cc1C(F)(F)F` [Example 27, 4-fluoro-N-(4-(2-oxo-3-phenyl-1,2,3,4-tetrahydropyrido [2,3-d]pyrimidin-5-ylamino)phenyl)-2-(trifluoromethyl) benzamide]: 10 to 100 nM.
`CN1Cc2c(Nc3ccc(NC(=O)c4ccc(F)cc4C(F)(F)F)cc3F)ccnc2NC1=O` [Example 28, 4-fluoro-N-(3-fluoro-4-(3-methyl-2-oxo-1,2,3,4-tetrahydropyrido [2,3-d]pyrimidin-5-ylamino)phenyl)-2-(trifluoromethyl) benzamide]: the IC50 was less than 10 nM.
Next, `O=C(Nc1ccc(Nc2ccnc3c2CN(CCO)C(=O)N3)cc1)c1ccc(F)cc1C(F)(F)F` [Example 30, 4-fluoro-N-(4-(3-(2-hydroxyethyl)-2-oxo-1,2,3,4-tetrahydropyrido [2,3-d]pyrimidin-5-ylamino)phenyl)-2-(trifluoromethyl) benzamide]: 10 to 100 nM.
Turning to `O=C(Nc1ccc(Nc2ccnc3c2CN(CCCN2CCCC2=O)C(=O)N3)cc1)c1ccc(F)cc1C(F)(F)F` [Example 31, 4-fluoro-N-(4-(2-oxo-3-(3-(2-oxopyrrolidin-1-yl)propyl)-1,2,3,4-tetrahydropyrido [2,3-d]pyrimidin-5-ylamino)phenyl)-2-(trifluoromethyl) benzamide], the IC50 lay in the range of 10 to 100 nM.
As for `O=C(Nc1ccc(Nc2ccnc3c2CN(CCCO)C(=O)N3)cc1)c1ccc(F)cc1C(F)(F)F` [Example 32, 4-fluoro-N-(4-(3-(3-hydroxypropyl)-2-oxo-1,2,3,4-tetrahydropyrido [2,3-d]pyrimidin-5-ylamino)phenyl)-2-(trifluoromethyl) benzamide], the IC50 is less than 10 nM.
Regarding `CCN1Cc2c(Nc3ccc(NC(=O)c4ccc(F)cc4C(F)(F)F)cc3)ccnc2NC1=O` [Example 34, N-(4-(3-ethyl-2-oxo-1,2,3,4-tetrahydropyrido [2,3-d]pyrimidin-5-ylamino)phenyl)-4-fluoro-2-(trifluoromethyl) benzamide], the IC50 is less than 10 nM.
With `CCN1Cc2c(Nc3ccc(NC(=O)c4ccccc4)cc3)ccnc2NC1=O` [Example 35, N-(4-(3-ethyl-2-oxo-1,2,3,4-tetrahydropyrido [2,3-d]pyrimidin-5-ylamino)phenyl) benzamide] the figure was 10 to 100 nM; with `CCN1Cc2c(Nc3ccc(NC(=O)c4ccc(F)cc4C(F)(F)F)cc3F)ccnc2NC1=O` [Example 36, N-(4-(3-ethyl-2-oxo-1,2,3,4-tetrahydropyrido [2,3-d]pyrimidin-5-ylamino)-3-fluorophenyl)-4-fluoro-2-(trifluoromethyl) benzamide], less than 10 nM.

As a reminder, the IC50 is the point on the concentration scale where inhibition reaches its midpoint.

For the origin of these results see US8569295B2, “Bicyclic urea compounds” (Merck Patent GmbH, priority 2009, dated 2013).
